In US6461997B1, “Triazole sulfones having herbicidal activity” (Monsanto Technology LLC, priority 1999, dated 2002):

What was measured:
SORVU (shattercane) = assay: Pre-emergence herbicidal activity, warm season; assay type: in vivo, Sorghum vulgare; settings: GR80 = lowest tested rate (300, 100, 30, 10 g/ha) with 80% or greater inhibition; approx. 14 days after treating; 30/21° C.
Outline: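 Activity is expressed as the rate giving 80% inhibition, with 300, 100, 30 and 10 g/ha typically tested. An asterisk marks activity short of 80% at the top rate. Warm-season grasses were held at 30/21 °C; cool-season blackgrass and wild buckwheat at 18/13 °C; scoring at about 14 days.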

SASKR (russian thistle) = assay: Pre-emergence herbicidal activity, cool season; assay type: in vivo, Salsola kali; settings: lowest tested rate with 80% or greater inhibition; rates 300, 100, 30, 10 g/ha; about 14 days
Outline: (§1)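 GR80 values derive from percent inhibition relative to untreated plants, read roughly 14 days after sowing and pre-emergence soil-surface treatment (compound in 50:50 acetone/water; rates typically 10, 30, 100, 300 g/ha). Warm-season weeds grew at 30/21° C day/night, cool-season ones at 18/13° C; an asterisk marks activity without reaching 80% at the highest rate.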

STEME (common chickweed) = assay: Pre-emergence herbicidal activity, cool season; assay type: in vivo, Stellaria media; settings: lowest tested rate with 80% or greater inhibition; rates 300, 100, 30, 10 g/ha; about 14 days
Outline: as §1

DATST (jimsonweed) = assay: Pre-plant incorporated (PPI) herbicidal activity, warm season; assay type: in vivo, Datura stramonium; settings: for PPI activity (GR80) DATST: pre-plant incorporated, GR80 = lowest tested rate with 80% or greater inhibition, approx. 14 days after treating, 30/21° C.
Outline: (§2)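 Pots are filled with topsoil, seeded, and topped with cover soil carrying the sprayed, mixed-in compound. After 0.64 cm overhead irrigation, growth proceeds at 30/21° C or 18/13° C day/night with mist or subirrigation. Scoring is percent inhibition relative to untreated controls about two weeks on.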

ECHCG (barnyardgrass) = assay: as above; assay type: in vivo, Echinochloa crus-galli; settings: for PPI activity GR80, ECHCG: pre-plant incorporated, lowest tested rate with 80% or greater inhibition, about 14 days
Outline: as §2

[1] = test system: PANMI (wild proso millet); assay: as above; assay type: in vivo, Panicum miliaceum; settings: for PPI activity GR80, PANMI: pre-plant incorporated, lowest tested rate with 80% or greater inhibition, about 14 days
Outline: as §2

DIGSA (large crabgrass) = assay: as above; assay type: in vivo, Digitaria sanguinalis; settings: for PPI activity GR80, DIGSA: pre-plant incorporated, lowest tested rate with 80% or greater inhibition, about 14 days
Outline: as §2

[2] = test system: VERPE (creeping speedwell); assay: Pre-plant incorporated (PPI) herbicidal activity, cool season; assay type: in vivo, Veronica persicaria; settings: for PPI activity GR80, VERPE: pre-plant incorporated, lowest tested rate with 80% or greater inhibition, about 14 days
Outline: as §2

[3] = test system: AGRRE (quackgrass (seedling)); assay: as above; assay type: in vivo, Elymus repens; settings: for PPI activity GR80, AGRRE: pre-plant incorporated, lowest tested rate with 80% or greater inhibition, about 14 days
Outline: as §2

[4] = weed, PPI application, 100 g/ha
[5] = weed, PPI application, 300 g/ha
[6] = weed, PPI application, 900 g/ha

Compound: CCN(CC)C(=O)n1cnc(S(=O)(=O)C(F)(F)SCCOC)n1 [Example 13]
- Pre-emergence activity (GR80) SORVU (SORVU (shattercane)): * (activity observed, at least at highest rate, but <80% inhibition)
- Pre-emergence activity GR80, SASKR (SASKR (russian thistle)): [empty]
- Pre-emergence activity GR80, STEME (STEME (common chickweed)): 100 g/ha
- Percent inhibition DATST (DATST (jimsonweed); PPI application, 10 g/ha): 0%
- Percent inhibition DATST (DATST (jimsonweed); PPI application, 30 g/ha): 30%
- Percent inhibition DATST (DATST (jimsonweed); PPI application, 100 g/ha): 50%
- Percent inhibition DATST (DATST (jimsonweed); PPI application, 300 g/ha): 90%
- Percent inhibition DATST (DATST (jimsonweed); PPI application, 900 g/ha): 100%
- PPI activity (GR80) DATST (DATST (jimsonweed)): 300 g/ha
- Percent inhibition ECHCG (ECHCG (barnyardgrass); PPI application, 10 g/ha): 10%
- Percent inhibition ECHCG (ECHCG (barnyardgrass); PPI application, 30 g/ha): 80%
- Percent inhibition ECHCG (ECHCG (barnyardgrass); PPI application, 100 g/ha): 100%
- Percent inhibition ECHCG (ECHCG (barnyardgrass); PPI application, 300 g/ha): 100%
- Percent inhibition ECHCG (ECHCG (barnyardgrass); PPI application, 900 g/ha): 100%
- PPI activity GR80, ECHCG (ECHCG (barnyardgrass)): 100 g/ha
- Percent inhibition PANMI ([1]; PPI application, 10 g/ha): 100%
- Percent inhibition PANMI ([1]; PPI application, 30 g/ha): 90%
- Percent inhibition PANMI ([1]; PPI application, 100 g/ha): 70%
- Percent inhibition PANMI ([1]; PPI application, 300 g/ha): 100%
- Percent inhibition PANMI ([1]; PPI application, 900 g/ha): 100%
- PPI activity GR80, PANMI [1]: 100 g/ha
- Percent inhibition DIGSA (DIGSA (large crabgrass); PPI application, 10 g/ha): 0%
- Percent inhibition DIGSA (DIGSA (large crabgrass); PPI application, 30 g/ha): 75%
- Percent inhibition DIGSA (DIGSA (large crabgrass); PPI application, 100 g/ha): 100%
- Percent inhibition DIGSA (DIGSA (large crabgrass); PPI application, 300 g/ha): 100%
- Percent inhibition DIGSA (DIGSA (large crabgrass); PPI application, 900 g/ha): 100%
- PPI activity GR80, DIGSA (DIGSA (large crabgrass)): 30 g/ha
- PPI activity GR80, VERPE [2]: 100 g/ha
- Percent inhibition VERPE ([2]; weed, PPI application, 10 g/ha): 75%
- Percent inhibition VERPE ([2]; weed, PPI application, 30 g/ha): 100%
- Percent inhibition VERPE [2, 4]: 100%
- Percent inhibition VERPE [2, 5]: 100%
- Percent inhibition VERPE [2, 6]: 100%
- PPI activity GR80, AGRRE [3]: * (activity observed, at least at highest rate, but <80% inhibition)
- Percent inhibition AGRRE ([3]; weed, PPI application, 10 g/ha): 0%
- Percent inhibition AGRRE ([3]; weed, PPI application, 30 g/ha): 0%
- Percent inhibition AGRRE [3, 4]: 20%
- Percent inhibition AGRRE [3, 5]: 40%
- Percent inhibition AGRRE [3, 6]: 60%

Compound: C=C(Br)CC(F)(F)S(=O)(=O)c1ncn(C(=O)N(CC)CC)n1 [Example 19]
- Pre-emergence activity (GR80) SORVU (SORVU (shattercane)): 300 g/ha
- Pre-emergence activity GR80, SASKR (SASKR (russian thistle)): 100 g/ha
- Pre-emergence activity GR80, STEME (STEME (common chickweed)): 10 g/ha
- inhibition at 10 g/ha (DATST (jimsonweed); Datura stramonium, PPI application, 10 g/ha, read-out: Percent inhibition DATST): 0%
- inhibition at 30 g/ha (DATST (jimsonweed); Datura stramonium, PPI application, 30 g/ha, read-out: Percent inhibition DATST): 0%
- inhibition at 100 g/ha (DATST (jimsonweed); Datura stramonium, PPI application, 100 g/ha, read-out: Percent inhibition DATST): 0%
- inhibition at 300 g/ha (DATST (jimsonweed); Datura stramonium, PPI application, 300 g/ha, read-out: Percent inhibition DATST): 90%
- inhibition at 900 g/ha (DATST (jimsonweed); Datura stramonium, PPI application, 900 g/ha, read-out: Percent inhibition DATST): 99%
- PPI activity (GR80) DATST (DATST (jimsonweed)): 300 g/ha
- inhibition at 10 g/ha (ECHCG (barnyardgrass); Echinochloa crus-galli, PPI application, 10 g/ha, read-out: Percent inhibition ECHCG): 20%
- inhibition at 30 g/ha (ECHCG (barnyardgrass); Echinochloa crus-galli, PPI application, 30 g/ha, read-out: Percent inhibition ECHCG): 20%
- inhibition at 100 g/ha (ECHCG (barnyardgrass); Echinochloa crus-galli, PPI application, 100 g/ha, read-out: Percent inhibition ECHCG): 100%
- inhibition at 300 g/ha (ECHCG (barnyardgrass); Echinochloa crus-galli, PPI application, 300 g/ha, read-out: Percent inhibition ECHCG): 100%
- inhibition at 900 g/ha (ECHCG (barnyardgrass); Echinochloa crus-galli, PPI application, 900 g/ha, read-out: Percent inhibition ECHCG): 100%
- PPI activity GR80, ECHCG (ECHCG (barnyardgrass)): 30 g/ha
- inhibition at 10 g/ha ([1]; Panicum miliaceum, PPI application, 10 g/ha, read-out: Percent inhibition PANMI): 0%
- inhibition at 30 g/ha ([1]; Panicum miliaceum, PPI application, 30 g/ha, read-out: Percent inhibition PANMI): 60%
- inhibition at 100 g/ha ([1]; Panicum miliaceum, PPI application, 100 g/ha, read-out: Percent inhibition PANMI): 100%
- inhibition at 300 g/ha ([1]; Panicum miliaceum, PPI application, 300 g/ha, read-out: Percent inhibition PANMI): 100%
- inhibition at 900 g/ha ([1]; Panicum miliaceum, PPI application, 900 g/ha, read-out: Percent inhibition PANMI): 100%
- PPI activity GR80, PANMI [1]: 100 g/ha
- inhibition at 30 g/ha (DIGSA (large crabgrass); Digitaria sanguinalis, PPI application, 30 g/ha, read-out: Percent inhibition DIGSA): 40%
- inhibition at 100 g/ha (DIGSA (large crabgrass); Digitaria sanguinalis, PPI application, 100 g/ha, read-out: Percent inhibition DIGSA): 90%
- inhibition at 300 g/ha (DIGSA (large crabgrass); Digitaria sanguinalis, PPI application, 300 g/ha, read-out: Percent inhibition DIGSA): 90%
- inhibition at 900 g/ha (DIGSA (large crabgrass); Digitaria sanguinalis, PPI application, 900 g/ha, read-out: Percent inhibition DIGSA): 99%
- PPI activity GR80, DIGSA (DIGSA (large crabgrass)): 30 g/ha
- PPI activity GR80, VERPE [2]: [empty]
- inhibition at 10 g/ha ([2]; weed, PPI application, 10 g/ha, read-out: Percent inhibition VERPE): 0%
- inhibition at 30 g/ha ([2]; weed, PPI application, 30 g/ha, read-out: Percent inhibition VERPE): 40%
- inhibition at 100 g/ha ([2]; weed, PPI application, 100 g/ha, read-out: Percent inhibition VERPE): 20%
- inhibition at 300 g/ha ([2]; weed, PPI application, 300 g/ha, read-out: Percent inhibition VERPE): 20%
- inhibition at 900 g/ha ([2]; weed, PPI application, 900 g/ha, read-out: Percent inhibition VERPE): 99%
- inhibition at 10 g/ha ([3]; Elymus repens, weed, PPI application, 10 g/ha, read-out: Percent inhibition AGRRE): 0%
- inhibition at 30 g/ha ([3]; Elymus repens, weed, PPI application, 30 g/ha, read-out: Percent inhibition AGRRE): 0%
- inhibition at 100 g/ha ([3]; Elymus repens, weed, PPI application, 100 g/ha, read-out: Percent inhibition AGRRE): 10%
- inhibition at 300 g/ha ([3]; Elymus repens, weed, PPI application, 300 g/ha, read-out: Percent inhibition AGRRE): 20%
- inhibition at 900 g/ha ([3]; Elymus repens, weed, PPI application, 900 g/ha, read-out: Percent inhibition AGRRE): 80%
- PPI activity GR80, AGRRE [3]: 100 g/ha
